# Experimental data reported in patent publication US9211278B2, “Composition containing arylnaphthalene lignan derivative for preventing and/or treating dementia” (KOREA INSTITUTE OF SCIENCE AND TECHNOLOGY, priority 2012, dated 2015).
# What was measured:
# [1] = system: beta-amyloid (Aβ40, Aβ42) formation; assay: Beta-amyloid (Aβ40, Aβ42) formation, ELISA, in APP-transfected HeLa cells; type: cell-based, human; settings: for inhibition of beta-amyloid (Aβ40, Aβ42) formation: HeLa-APP cells, various concentrations (FIGS. 1, 2, 6); for inhibition at 1 µM / inhibition at 5 µg/mL: Homo sapiens, HeLa, read-out: inhibitory effect on the beta-amyloid; for inhibition at 5 µg/mL: 5 μg/ml
# Method: To test the inhibitory effect of Justicidin A (C1) obtained in Example 2 on the beta-amyloid formation, HeLa cell line transfected with the amyloid precursor protein (APP) driven from human was cultured in DMEM solution (Cat. #11995, Gibco, USA) for use. The cell line was received from Prof. Tae-Wan Kim at Department of Pathology, Columbia University Medical Center, New York, N.Y. 10032, USA.
# Specifically, the Justicidin A of Example 2 was added into the cell line culture at the amount indicated in FIG. 1, and then the produced amount of be-amyloid (Aβ40, Aβ42 was measured. Human β-Amyloid[1-40](Aβ40), Human β-Amyloid [1-42](Aβ42) Colorimetric ELISA kit (#KHB3482 and #KHB3442; BioSource International, Inc., U.S.A.) were used to quantify two types of beta-amyloid (Aβ40, Aβ42).
# The 5-methoxyJusticidin A (C2) of Example 2 was added into the cell line culture at the amount indicated in FIG. 2, and then the produced amount of be-amyloid was measured according to the method of Example 1.1. The group which was not treated with 5-methoxyjusticidin A was used as a negative control.
# The compounds were used at the amount of FIG. 6, and measured for the beta-amyloid (Aβ40, Aβ42) formation according to the same method of Experimental Example <1-1>. The group treated with Justicidin A(C1) was a positive control and the group with no treatment was a negative control.
# [2] = system: alpha-secretase product (sAPPα); assay: Alpha-secretase product (sAPPα) production, Western blotting; type: cell-based, human; settings: 8 hours, concentrations of FIG. 5
# Method: The test result confirmed that Justicidin A (C1) obtained in Example 2 and 5-methoxyJusticidin A increased alpha-secretase product (sAPPα). Specifically, the produced amount of sAPPα was measured by treating the cultured cell line (the HeLa cell line transfected with the amyloid precursor protein (APP) driven from human) with Justicidin A (S62-C1) or 5-methoxyJusticitdin A (S62-C2) at a concentration of FIG. 5, culturing it for 8 hours, and measuring the produced amount of sAPPα according to the Western blotting. The negative control was the group with no treatment of Justicidin A or 5-methoxyJusticidin A.
SMILES,"inhibition of beta-amyloid (Aβ40, Aβ42) formation [1]",inhibition at 1 µM [1] [%],also measured
"COc1ccc(-c2c3c(c(OC)c4cc5c(cc24)OCO5)C(=O)OC3)cc1OC [retrochinensinaphthol methyether, Retrochinensinaphthol methylether]",did not show nearly the inhibition,–,–
COc1cc2c(-c3ccc4c(c3)OCO4)c3c(c(OC)c2c(OC)c1OC)COC3=O [5-methoxyJusticidin A],"inhibited the beta-amyloid (Aβ40, Aβ42) formation at a concentration-dependent manner",–,formation of alpha-secretase product (sAPPα) [2]: activated the formation of alpha-secretase product (sAPPα)
"COc1c2c(cc3c(-c4ccc5c(c4)OCO5)c4c(cc13)C(=O)OC4)OCO2 [Justicidin G, reference compound]",–,~20,–
"COc1c2c(c(-c3ccc4c(c3)OCO4)c3cc4c(cc13)OCO4)C(=O)OC2 [Justicidin F, reference compound]",–,~20,–
COc1ccc(-c2c3c(c(O)c4cc5c(cc24)OCO5)COC3=O)cc1OC [Chinensinaphthol],–,–,inhibition at 5 µg/mL [1]: ~50%
COc1ccc(CC2COC(=O)/C2=C/c2ccc3c(c2)OCO3)cc1OC (stereo not drawn) [succilactone],did not show nearly the inhibition,–,inhibition at 5 µg/mL [1]: ~10%
"COc1c2c(c(-c3ccc4c(c3)OCO4)c3cc4c(cc13)OCO4)COC2=O [Justicidin D, reference compound]",–,~20,–
